Test results published in US20150132404A1, “Equine feed for the reduction of ulcers in performance horses” (priority 2013, published 2015).

Tested on: horses
Test: Observation of horses fed the feed supplement mixture (testing of the product)
Assay type: in vivo, horse
Text: A dry horse feed supplement for the prevention and treatment of ulcers in horses, especially those involved in performance activities, provides a feed supplement mixture comprising a quantity of forage or filler product; a quantity of grain product, a quantity of protein product, a quantity of roughage product, essential vitamins and trace minerals, a yeast product, fat, molasses, a measured quantity of thiamine (Vitamin B1) and a measured quantity of sodium bicarbonate. The feed supplement mixture is fed to a horse based upon the total weight of the horse, in an amount between 0.50-1.50% of the body weight, depending upon the level of work and activity stress of the horse.
The feed composition ingredients, delivered in the parameters set above with regard to content quantity by percentage includes the ingredients list, in order of most ingredient quantity to least ingredients quantity, provides the feed containing no less than 14% crude protein, 6.5% crude fat, a no more than 22% crude fiber, no less than 0.6% and no more than 1% calcium, no less than 0.3% phosphorus, as well as quantities of zinc, copper, selenium, Vitamin A and Vitamin E. There are special blends suited for older performance horses and other blends for various younger performance horses. […]

SMILES | pH level in the digestive tract (sodium bicarbonate at the recommended levels in the feed) | effect on demeanor / stress level of the horse (fed in the feed supplement mixture at 0.5-1.5% of body weight)
O=C([O-])O.[Na+] [sodium bicarbonate] | acts as a buffer and maintains an optimal ph level in the digestive tract | –
Cc1ncc(C[n+]2csc(CCO)c2C)c(N)n1 [thiamine] | – | calming effect on horses
